≈ marks a conversion by molar mass, not a printed value.

Format in all cases: cell-based
One test relates to Candida albicans. Put plainly: in vitro serial dilution test for antimycotic action (microtitration technique), yeast. Conditions: read-out: Minimum inhibitory concentration for Candida albicans. How it is done:
(§1) The in vitro tests for an antimycotic action are carried out in serial dilution tests on yeasts (Candida albicans) and molds (Aspergillus niger) [Material and Methods: Microtitration technique published in Mykosen 27, 14 (1984)].

The test system of a further test is Aspergillus niger. In words: in vitro serial dilution test for antimycotic action (microtitration technique), mold. Particulars: read-out: Minimum inhibitory concentration for Aspergillus niger. The protocol:
as §1

The test system of test [1] is yeasts (Candida albicans) and molds (Aspergillus niger). Put plainly: in vitro tests for an antimycotic action in serial dilution, overall result in words. Particulars: compared with reference substance niphimycin. How it is done: as §1

As to `CNC(=N)NCCCC=CCCCC(C)CC(C)C1OC(=O)C(C)C(O)C=CC(C)C(O)CC(O)C(C)C(O)CCC(C)C(O)CC2(O)OC(CC(OC(=O)CC(=O)O)CC(O)CC(O)C(C)C(O)C=CC=CC1C)CC(O)C2O` (centres unmarked) [Niphimycin, reference compound], the values for the MIC in the test on Candida albicans and with Aspergillus niger were 7.8 µg/mL (≈ 6.83 µM) and 3.9 µg/mL (≈ 3.41 µM), respectively.
As to `CNC(=N)NCCCC=CCCCC(C)CC(C)C1OC(=O)C(C)C(O)C=CC(C)C(O)CC(O)C(C)C(O)CCC(C)C(O)CC2(O)OC(CC(O)CC(O)CC(O)C(C)C(O)C=CC=CC1C)CC(O)C2O` (centres unmarked) [Demalonyl compound], the antimycotic properties entry in test [1] is recorded as “good antimycotic properties which are superior to those of the reference substance niphimycin”. Also, the MIC in the test with Candida albicans is 3.9 µg/mL (≈ 3.69 µM); in the test with Aspergillus niger, 1.95 µg/mL (≈ 1.85 µM).

For the origin of these results see patent US4873347A, “Process for the preparation of the demalonyl compound of macrolide lactones” (Hoechst Aktiengesellschaft, priority 1986, dated 1989).
